Experimental data taken from patent publication US20210330611A1, “THERAPY FOR NEUROLOGICAL DISEASES/DISORDERS” (priority 2020, published 2021).
Structures can show the parent of a compound that is named as a salt. Where two headings read alike, the source gives them in different places.

Assays:
[1] = system: fibrin-induced microglia activation; test: Image-based assay of fibrin-induced microglia activation (HTS and dose response); assay type: cell-based, rat; details: primary microglia HTS, fibrin stimulation, compounds at 10 μM; for inhibition at 10 µM: Rattus norvegicus, Microglia, read-out: Fibrin % inhibition
[2] = system: LPS-induced microglia activation; test: Image-based assay of LPS-induced microglia activation (HTS and dose response); assay type: cell-based, rat; details: primary microglia HTS, LPS stimulation, compounds at 10 μM; for inhibition at 10 µM: Rattus norvegicus, Microglia, read-out: LPS % inhibition
primary rat microglia [3] = test: Cell toxicity (dead cells, size <150 μm2) in coated fibrin (cFib) assay; details: primary microglia HTS, fibrin assay, dead cells (size <150 μm2);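 note: share of dead cells sized under 150 µm2 at 10 µM in fibrin-stimulated microglia HTS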
primary rat microglia [4] = system: primary rat microglia
[5] = system: fibrin- and LPS-induced microglia activation; test: cells; assay type: cell-based, rat; details: HTS at 10 μM
[6] = quadrant by fibrin and LPS inhibition
[7] = classification by fibrin and LPS inhibition

SMILES | inhibition at 10 µM [1] [%] | inhibition at 10 µM [2] [%] | Fibrin % cell toxicity (primary rat microglia [3]) [%] | LPS % cell toxicity (primary rat microglia [4]; rat) [%] | Quadrant (FIG. 5b) [5, 6] | Fibrin % inhibition [1] [%] | LPS % inhibition [2] [%] | LPS % cell toxicity (primary rat microglia [4]) [%] | Fibrin % inhibition ([1]; 10 µM) [%] | LPS % inhibition ([2]; 10 µM) [%] | Fibrin % cell toxicity (primary rat microglia [3]; compounds at 10 μM) [%] | Quadrant (FIG. 5b) [5, 7]
COc1ccc(C(=O)CC(=O)c2ccc(C(C)(C)C)cc2)cc1 [Avobenzone] | 22 | 20 | 1 | 0 | Q4 | – | – | – | – | – | – | –
[N-]=[N+]=CC(=O)OC[C@H](N)C(=O)O [Azaserine] | 8 | 2 | 1 | 0 | Q4 | – | – | – | – | – | – | –
CN1CCC(=C2c3ccccc3CCc3cccnc32)CC1 [Azatadine] | -9 | 7 | 1 | 0 | Q4 | – | – | – | – | – | – | –
O=C(O)CCCCCCCC(=O)O [Azelaic Acid] | 6 | 19 | 0 | 0 | Q4 | – | – | – | – | – | – | –
CN1CCCC(n2nc(Cc3ccc(Cl)cc3)c3ccccc3c2=O)CC1 (centres unmarked) [Azelastine, Azelastine Hydrochloride] | – | – | 0 | – | Q4 | 5 | 11 | 0 | – | – | – | –
CCOc1nc2cccc(C(=O)OCc3oc(=O)oc3C)c2n1Cc1ccc(-c2ccccc2-c2noc(=O)[nH]2)cc1 [Azilsartan medoxomil] | 5 | 31 | 0 | 1 | Q4 | – | – | – | – | – | – | –
CC1(C)S[C@@H]2[C@H](NC(=O)[C@H](NC(=O)N3CCNC3=O)c3ccccc3)C(=O)N2[C@H]1C(=O)O [Azlocillin Sodium] | – | – | 0 | 0 | Q4 | – | – | – | −5 | 17 | – | –
CC1(C)S[C@@H]2[C@H](NC(=O)[C@H](NC(=O)N3CCNC3=O)c3ccccc3)C(=O)N2[C@H]1C(=O)O [Azlocillin] | – | – | 1 | 1 | Q4 | – | – | – | −14 | 6 | – | –
CCOC(=O)OC(C)OC(=O)[C@@H]1N2C(=O)[C@@H](NC(=O)[C@H](N)c3ccccc3)[C@H]2SC1(C)C (some centres unmarked) [Bacampicillin Hydrochloride] | -12 | 8 | 1 | 0 | Q4 | – | – | – | – | – | – | –
O=C(O)CCNC(=O)c1ccc(/N=N/c2ccc(O)c(C(=O)O)c2)cc1 [Balsalazide] | -2 | 11 | 0 | 0 | Q4 | – | – | – | – | – | – | –
CCC1(CC)C(=O)NC(=O)NC1=O [Barbital] | -5 | 11 | 0 | 0 | Q4 | – | – | – | – | – | – | –
NC[C@H]1O[C@H](O[C@H]2[C@H](O)[C@@H](O[C@H]3O[C@H](CO)[C@@H](O)[C@H](N)[C@H]3O)[C@H](N)C[C@@H]2N)[C@H](N)[C@@H](O)[C@@H]1O.O=S(=O)(O)O [Becanamycin Sulfate, Bekanamycin Sulfate] | – | – | 1 | – | Q4 | −10 | 16 | 0 | – | – | – | –
CCC(=O)OCC(=O)[C@@]1(OC(=O)CC)[C@@H](C)C[C@H]2[C@@H]3CCC4=CC(=O)C=C[C@]4(C)[C@@]3(Cl)[C@@H](O)C[C@@]21C [Beclomethasone Dipropionate] | 7 | 28 | 1 | 1 | Q4 | – | – | – | – | – | – | –
C[C@H]1C[C@H]2[C@@H]3CCC4=CC(=O)C=C[C@]4(C)[C@@]3(Cl)[C@@H](O)C[C@]2(C)[C@@]1(O)C(=O)CO [Beclomethasone] | – | – | 1 | – | Q4 | −8 | −3 | 0 | – | – | – | –
CCCCC(CC)COc1ccc(-c2nc(-c3ccc(OC)cc3)nc(-c3ccc(OCC(CC)CCCC)cc3O)n2)c(O)c1 (centres unmarked) [Bemotrizinol] | – | – | 1 | – | Q4 | −23 | 16 | 0 | – | – | – | –
CCOC(=O)[C@H](CCc1ccccc1)N[C@H]1CCc2ccccc2N(CC(=O)O)C1=O [Benazepril] | 0 | 26 | 1 | 1 | Q4 | – | – | – | – | – | – | –
NS(=O)(=O)c1cc2c(cc1C(F)(F)F)NC(Cc1ccccc1)NS2(=O)=O (centres unmarked) [Bendrofumethiazide, Bendroflumethiazide] | – | – | 1 | – | Q4 | −15 | 12 | 1 | – | – | – | –
CC(Cc1cccc(C(F)(F)F)c1)NCCOC(=O)c1ccccc1 (centres unmarked) [Benfluorex] | -26 | -3 | 1 | 0 | Q4 | – | – | – | – | – | – | –
C/C(=C(\CCOP(=O)(O)O)SC(=O)c1ccccc1)N(C=O)Cc1cnc(C)nc1N [Benfotiamine] | -47 | 18 | 0 | 0 | Q4 | – | – | – | – | – | – | –
O=C(CNC(=O)c1ccc(Cl)cc1)NO [Benurestat] | – | – | 1 | – | Q4 | 6 | 22 | 1 | – | – | – | –
CCc1oc2ccccc2c1C(=O)c1cc(Br)c(O)c(Br)c1 [Benzbromarone] | 0 | 24 | 0 | 1 | Q4 | – | – | – | – | – | – | –
CCCCNc1ccc(C(=O)OCCOCCOCCOCCOCCOCCOCCOCCOCCOC)cc1 [Benzonatate] | 0 | 12 | 1 | 0 | Q4 | – | – | – | – | – | – | –
O=C(Oc1cccc2cccnc12)c1ccccc1 [Benzoxiquine] | -2 | 14 | 1 | 0 | Q4 | – | – | – | – | – | – | –
NS(=O)(=O)c1cc2c(cc1Cl)N=C(CSCc1ccccc1)NS2(=O)=O [Benzthiazide] | -8 | 7 | 1 | 0 | Q4 | – | – | – | – | – | – | –
CN1CC(=O)NC1=N [Creatinine] | -3 | 10 | – | 0 | – | – | – | – | – | – | 1 | Q4
CC(=O)Oc1c(C)cccc1C(=O)O [Cresopyrine, Cresopirine] | – | – | – | – | – | 13 | 15 | 1 | – | – | 1 | Q4
O=C(O)c1cc(=O)c2c(OCC(O)COc3cccc4oc(C(=O)O)cc(=O)c34)cccc2o1 [Cromoglicic acid] | -28 | 8 | – | 0 | – | – | – | – | – | – | 0 | Q4
FC(F)(Cl)C(F)(F)Cl [Cryoflurane] | – | – | – | – | – | −4 | 12 | 0 | – | – | 1 | Q4
